Entries after “also recorded” stand apart in the source; their conditions may differ.
Tested on: SARS-CoV-2 P.1 lineage (gamma variant)
Parameters: species or system K18-hACE2 mice
Conditions: in vivo

SMILES: COC(=O)N[C@H](C(=O)N1CCC[C@H]1c1nc(-c2ccc(-c3ccc(-c4c[nH]c([C@@H]5CCCN5C(=O)[C@@H](NC(=O)OC)C(C)C)n4)cc3)cc2)c[nH]1)C(C)C [daclatasvir]
- mouse survival: increased mouse survival; also recorded: did not significantly affect
- LDH levels in bronchoalveolar lavage (BAL) fluid (cell death, lung necrosis) (mouse): decreased levels
- SARS-CoV-2-induced increase in IL-6 (mouse): prevented
- SARS-CoV-2-induced increase in KC (mouse): prevented
- SARS-CoV-2-induced increase in TNF-α (mouse): prevented
- cellular infiltration in BAL fluid (mouse): reduced cellular infiltration
- double-stranded RNA (dsRNA) levels in the lungs (mouse): lower levels
- loss of body weight (mouse): reduced
- lung parenchyma affected by alveolar collapse (mouse): ~10%
- reduction of SARS-CoV-2 RNA levels in the lungs (mouse): up to 3 log10
- reduction of SARS-CoV-2 titers in the lungs (mouse): up to 3 log10
- virus-induced score of clinical severity (mouse): reduced

— publication PMC11680164 (Viruses, 2024)
